In ChEMBL document CHEMBL1201862, “PubChem BioAssay data set” (2004):
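Results reflect a 48-hour exposure of cells in 96-well plates to compound at five concentrations. Here, GI50 denotes the concentration required for 50% inhibition of growth.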 The source made the active and inactive calls. No stated cut-off is given here; in the data, active = GI50 up to about 1.1 µM and inactive = higher.

Assays:
Assay in all cases: DTP human tumour cell line panel, 48 h
[1] = system: A498
[2] = system: ACHN
[3] = system: CAKI-1
[4] = system: COLO 205
[5] = system: EKVX
[6] = system: HCT-116
[7] = system: HOP-92
[8] = system: HT-29
[9] = system: KM12
[10] = system: M14
[11] = system: MDA-MB-435
[12] = system: MDA-N
[13] = system: NCI-H23
[14] = system: NCI-H460
[15] = system: RXF 393
[16] = system: SF-268
[17] = system: SNB-19
[18] = system: SR
[19] = system: TK-10
[20] = system: Hs-578T

Measured: GI50

Nc1c(C(=O)Nc2ccc([As](=O)(O)O)cc2)cnc2nnnn12
inactive: [1] > 100 µM | [2] > 100 µM | [3] > 100 µM | [4] > 100 µM | [5] > 100 µM | [6] > 100 µM | [7] > 100 µM | [8] > 100 µM | [9] > 100 µM | [10] > 100 µM | [11] > 100 µM | [12] > 100 µM | [13] > 100 µM | [14] > 100 µM | [15] > 100 µM | [16] > 100 µM | [17] > 100 µM | [18] > 100 µM | [19] > 100 µM

CC(=O)/C(=C/n1c(=S)[nH]c2ccccc21)C(=O)Nc1ccccc1C
inactive: [1] > 100 µM | [2] > 100 µM | [3] > 100 µM | [4] > 100 µM | [5] > 100 µM | [6] > 100 µM | [7] > 100 µM | [8] > 100 µM | [9] > 100 µM | [10] > 100 µM | [11] > 100 µM | [12] > 100 µM | [13] > 100 µM | [14] > 100 µM | [15] > 100 µM | [16] > 100 µM | [17] > 100 µM | [19] > 100 µM

CC1=C/C(=C2/N=C(N(C)C)SS2)C(C)=N1.[O-][Cl+3]([O-])([O-])O
inactive: [1] > 100 µM | [2] > 100 µM | [3] > 100 µM | [4] 3.07 µM | [5] > 100 µM | [6] > 100 µM | [7] > 100 µM | [8] > 100 µM | [9] > 100 µM | [10] > 100 µM | [13] 6.47 µM | [14] > 100 µM | [15] > 100 µM | [16] > 100 µM | [17] > 100 µM | [18] > 100 µM | [19] > 100 µM

COc1nc2c(nc(N)n2C2OC(CO)C(O)C(O)C2O)c(=O)[nH]1 (stereo not drawn)
inactive: [1] > 100 µM | [2] > 100 µM | [3] > 100 µM | [4] > 100 µM | [5] > 100 µM | [6] > 100 µM | [7] > 100 µM | [8] > 100 µM | [9] > 100 µM | [10] > 100 µM | [13] > 100 µM | [14] > 100 µM | [15] > 100 µM | [16] > 100 µM | [17] > 100 µM | [18] > 100 µM | [19] > 100 µM

N=C(N)NS(=O)(=O)c1ccc(NC(=O)c2cccn3c(=O)c4ccccc4nc23)cc1
inactive: [1] > 100 µM | [2] 81.8 µM | [3] > 100 µM | [4] 18.2 µM | [5] > 100 µM | [6] 40.8 µM | [7] > 100 µM | [8] 23.2 µM | [9] 15.9 µM | [10] 60.8 µM | [13] 38 µM | [14] 53.1 µM | [15] 62.8 µM | [16] > 100 µM | [17] > 100 µM | [18] 24.5 µM | [19] 61 µM

O=S(=O)(SCc1ccccc1)C(c1ccccc1)c1ccccc1
inactive: [1] 29.6 µM | [2] 37.8 µM | [3] 31 µM | [4] 19.6 µM | [5] 60.3 µM | [6] 33.4 µM | [7] 5.57 µM | [8] 28.6 µM | [9] 34.1 µM | [10] 24 µM | [13] 26.5 µM | [14] 37 µM | [15] 21.9 µM | [16] 57.1 µM | [17] > 100 µM | [18] 15.2 µM | [19] > 100 µM

OC1NC2Nc3ccccc3NC2NC1O (stereo not drawn)
inactive: [1] > 100 µM | [2] > 100 µM | [3] > 100 µM | [4] > 100 µM | [5] > 100 µM | [6] > 100 µM | [7] 30.8 µM | [8] > 100 µM | [20] > 100 µM | [9] > 100 µM | [10] > 100 µM | [11] > 100 µM | [13] > 100 µM | [14] > 100 µM | [15] > 100 µM | [16] > 100 µM | [17] > 100 µM | [18] > 100 µM | [19] > 100 µM

CN1C(=O)[C@](C)(Cc2ccc(F)cc2)N(C(=O)OC(C)(C)C)[C@@H]1C(C)(C)C
inactive: [1] 23.4 µM | [2] 37.7 µM | [3] 36.4 µM | [4] 19.5 µM | [5] 47.1 µM | [6] 30 µM | [7] 30.7 µM | [8] 22.1 µM | [9] 30.5 µM | [10] 41.6 µM | [11] 39.3 µM | [12] 37.4 µM | [13] 33.1 µM | [14] 31.5 µM | [15] 21.3 µM | [16] 55.3 µM | [17] > 100 µM | [18] 21.2 µM | [19] 80.9 µM
